Consider 5 compounds from ChEMBL document CHEMBL5724914, “Linking interpersonal differences in gut microbiota composition and drug biotransformation activity” (2024).

The conditions of data set [1]: human gut metagenome, 24 h, 2 µM.
A short description of data set [2]: The drug is tested on Z-018 corresponding to pig gut metagenome with ENA study accession number: PRJEB37062 and ENA sample accession number: ERS12561817 for biotransformation under anaerobic condition. The drug concentrations were measured over 9 timepoints collected between 0 and 24 hours of incubation by liquid-chromatography-coupled mass spectrometry (LC–MS). The settings on record: 2 µM.

The nature of data set [3]: The drug is tested on Z-026 corresponding to metagenome with ENA study accession number: PRJEB37062 and ENA sample accession number: ERS12561825 for biotransformation under anaerobic condition. The drug concentrations were measured over 9 timepoints collected between 0 and 24 hours of incubation by liquid-chromatography-coupled mass spectrometry (LC–MS). The settings on record: 2 µM.

A short description of data set [4]: The drug is tested on Z-007 corresponding to rat gut metagenome with ENA study accession number: PRJEB37062 and ENA sample accession number: ERS12561807 for biotransformation under anaerobic condition. The drug concentrations were measured over 9 timepoints collected between 0 and 24 hours of incubation by liquid-chromatography-coupled mass spectrometry (LC–MS). The following applies: 2 µM.

Data set [5] can be described thus: The drug is tested on Z-027 corresponding to metagenome with ENA study accession number: PRJEB37062 and ENA sample accession number: ERS12561826 for biotransformation under anaerobic condition. The drug concentrations were measured over 9 timepoints collected between 0 and 24 hours of incubation by liquid-chromatography-coupled mass spectrometry (LC–MS). The following applies: 2 µM.

The nature of data set [6]: The drug is tested on Z-003 corresponding to pig gut metagenome with ENA study accession number: PRJEB37062 and ENA sample accession number: ERS12561803 for biotransformation under anaerobic condition. The drug concentrations were measured over 9 timepoints collected between 0 and 24 hours of incubation by liquid-chromatography-coupled mass spectrometry (LC–MS). The settings on record: 2 µM.

Data set [7] can be described thus: The drug is tested on Z-028 corresponding to mouse gut metagenome with ENA study accession number: PRJEB37062 and ENA sample accession number: ERS12561827 for biotransformation under anaerobic condition. The drug concentrations were measured over 9 timepoints collected between 0 and 24 hours of incubation by liquid-chromatography-coupled mass spectrometry (LC–MS). The settings on record: 2 µM.

The nature of data set [8]: The drug is tested on WLS-006 corresponding to human gut metagenome with ENA study accession number: PRJEB37062 and ENA sample accession number: ERS12561741 for biotransformation under anaerobic condition. The drug concentrations were measured over 9 timepoints collected between 0 and 24 hours of incubation by liquid-chromatography-coupled mass spectrometry (LC–MS). The settings on record: 2 µM.

The nature of data set [9]: The drug is tested on WLS-077 corresponding to human gut metagenome with ENA study accession number: PRJEB37062 and ENA sample accession number: ERS12561750 for biotransformation under anaerobic condition. The drug concentrations were measured over 9 timepoints collected between 0 and 24 hours of incubation by liquid-chromatography-coupled mass spectrometry (LC–MS). The settings on record: 2 µM.

For data set [10] the following is noted: human gut metagenome, 24 h, 2 µM. The source holds these as a separate data set.
Data set [11] is described as follows: The drug is tested on WLS-170 corresponding to human gut metagenome with ENA study accession number: PRJEB37062 and ENA sample accession number: ERS12561762 for biotransformation under anaerobic condition. The drug concentrations were measured over 9 timepoints collected between 0 and 24 hours of incubation by liquid-chromatography-coupled mass spectrometry (LC–MS). The following applies: 2 µM.

The conditions of data set [12]: human gut metagenome, 24 h, 2 µM. This is another data set of the same source.
A short description of data set [13]: The drug is tested on WLS-240 corresponding to human gut metagenome with ENA study accession number: PRJEB37062 and ENA sample accession number: ERS12561773 for biotransformation under anaerobic condition. The drug concentrations were measured over 9 timepoints collected between 0 and 24 hours of incubation by liquid-chromatography-coupled mass spectrometry (LC–MS). The settings on record: 2 µM.

The conditions of data set [14]: human gut metagenome, 24 h, 2 µM. This is another data set of the same source.
The conditions of data set [15]: human gut metagenome, 24 h, 2 µM. The source holds these as a separate data set.
The conditions of data set [16]: human gut metagenome, 24 h, 2 µM. This is another data set of the same source.
Data set [17] in a line: The drug is tested on WLS-098 corresponding to human gut metagenome with ENA study accession number: PRJEB37062 and ENA sample accession number: ERS12561754 for biotransformation under anaerobic condition. The drug concentrations were measured over 9 timepoints collected between 0 and 24 hours of incubation by liquid-chromatography-coupled mass spectrometry (LC–MS). The settings on record: 2 µM.

Data set [18] can be described thus: The drug is tested on Z-029 corresponding to rat gut metagenome with ENA study accession number: PRJEB37062 and ENA sample accession number: ERS12561828 for biotransformation under anaerobic condition. The drug concentrations were measured over 9 timepoints collected between 0 and 24 hours of incubation by liquid-chromatography-coupled mass spectrometry (LC–MS). The following applies: 2 µM.

A short description of data set [19]: The drug is tested on WLS-310 corresponding to human gut metagenome with ENA study accession number: PRJEB37062 and ENA sample accession number: ERS12561785 for biotransformation under anaerobic condition. The drug concentrations were measured over 9 timepoints collected between 0 and 24 hours of incubation by liquid-chromatography-coupled mass spectrometry (LC–MS). The settings on record: 2 µM.

For data set [20] the following is noted: human gut metagenome, 24 h, 2 µM. The source holds these as a separate data set.
Note: call rule not given here.

For `COC1=CC(=O)C[C@@H](C)[C@]12Oc1c(Cl)c(OC)cc(OC)c1C2=O` [GRISEOFULVIN], the “Bacterial Biotransformation” value in [1], in data set [2], in data set [3], in data set [4], in data set [5] and in data set [6] was “Compound metabolized” each time. For the same compound, the “Bacterial Biotransformation” value is on record as “Compound metabolized” in data set [7]; “Compound metabolized” in data set [8]; “Compound metabolized” in [9]; “Compound NOT metabolized” in [10]; “Compound metabolized” in [11]; “Compound metabolized” in data set [12]. The “Bacterial Biotransformation” value in data set [13] is “Compound metabolized”; in [14] it was “Compound metabolized”; in data set [15], “Compound metabolized”; in data set [16] it was “Compound metabolized”; in data set [17], “Compound NOT metabolized”; in data set [18], “Compound NOT metabolized”. The “Bacterial Biotransformation” value in [19] is given as “Compound metabolized”; in data set [20], “Compound NOT metabolized”.
For the compound `N#Cc1ccc(C(c2ccc(C#N)cc2)n2cncn2)cc1` [LETROZOLE], the “Bacterial Biotransformation” value in [1] was “Compound NOT metabolized”; in data set [2], “Compound NOT metabolized”; in data set [3], “Compound metabolized”; in data set [4], “Compound NOT metabolized”; in data set [5] it was “Compound NOT metabolized”; in data set [6] it was “Compound NOT metabolized”. Also, the “Bacterial Biotransformation” value in data set [7], in data set [8], in data set [9], in data set [10], in data set [11] and in [12] was “Compound NOT metabolized” each time. The “Bacterial Biotransformation” value is reported as “Compound NOT metabolized” in data set [13]; “Compound NOT metabolized” in data set [14]; “Compound NOT metabolized” in [15]; “Compound NOT metabolized” in data set [16]; “Compound NOT metabolized” in data set [17]; “Compound metabolized” in [18]. Besides, the “Bacterial Biotransformation” value in [19] and in [20] was “Compound NOT metabolized” each time.
As to `CC(Oc1c(Cl)cccc1Cl)C1=NCCN1` (stereo not given) [LOFEXIDINE], the “Bacterial Biotransformation” value is given as “Compound metabolized” in [1]; “Compound NOT metabolized” in [2]; “Compound NOT metabolized” in data set [3]; “Compound NOT metabolized” in data set [4]; “Compound NOT metabolized” in data set [5]; “Compound NOT metabolized” in [6]. The “Bacterial Biotransformation” value in data set [7] is “Compound NOT metabolized”; in [8], “Compound NOT metabolized”; in data set [9] it was “Compound NOT metabolized”; in data set [10], “Compound NOT metabolized”; in [11] it was “Compound metabolized”; in data set [12] it was “Compound NOT metabolized”. In addition, the “Bacterial Biotransformation” value in [13] is reported as “Compound metabolized”; in [14], “Compound NOT metabolized”; in data set [15], “Compound NOT metabolized”; in [16], “Compound metabolized”; in data set [17] it was “Compound metabolized”; in data set [18], “Compound NOT metabolized”. Further, the figures for the “Bacterial Biotransformation” value in data set [19] and in data set [20] were “Compound metabolized” and “Compound NOT metabolized”, respectively.
As to `CN(C)C(=O)C(CCN1CCC(O)(c2ccc(Cl)cc2)CC1)(c1ccccc1)c1ccccc1` [LOPERAMIDE], the “Bacterial Biotransformation” value in [1] was “Compound metabolized”; in data set [2] it was “Compound metabolized”; in [3], “Compound NOT metabolized”; in data set [4], “Compound NOT metabolized”; in data set [5], “Compound metabolized”; in data set [6], “Compound metabolized”. Also, the “Bacterial Biotransformation” value in data set [7], in data set [8], in data set [9], in [10], in data set [11] and in data set [12] was “Compound metabolized” throughout. Further, the “Bacterial Biotransformation” value is recorded as “Compound metabolized” in data set [13]; “Compound metabolized” in data set [14]; “Compound metabolized” in data set [15]; “Compound metabolized” in data set [16]; “Compound metabolized” in data set [17]; “Compound NOT metabolized” in [18]. Besides, the “Bacterial Biotransformation” value was “Compound metabolized” in data set [19] and “Compound NOT metabolized” in data set [20].
As for `CCCCc1nc(Cl)c(CO)n1Cc1ccc(-c2ccccc2-c2nn[nH]n2)cc1` [LOSARTAN], the “Bacterial Biotransformation” value in data set [1] is given as “Compound metabolized”; in [2], “Compound NOT metabolized”; in [3], “Compound NOT metabolized”; in data set [4], “Compound NOT metabolized”; in [5], “Compound NOT metabolized”; in data set [6], “Compound NOT metabolized”. Besides, the “Bacterial Biotransformation” value is listed as “Compound NOT metabolized” in data set [7]; “Compound metabolized” in data set [8]; “Compound NOT metabolized” in data set [9]; “Compound metabolized” in data set [10]; “Compound metabolized” in [11]; “Compound NOT metabolized” in [12]. The “Bacterial Biotransformation” value in data set [13] is listed as “Compound metabolized”; in [14] it was “Compound metabolized”; in data set [15] it was “Compound NOT metabolized”; in [16] it was “Compound NOT metabolized”; in [17], “Compound metabolized”; in [18], “Compound metabolized”. For the same compound, the “Bacterial Biotransformation” value was “Compound metabolized” in data set [19] and “Compound NOT metabolized” in data set [20].
